Results as given in the supplement of paper PMC10307832.

Columns and labels:
Test in all cases: relative viability (nuclei count vs DMSO), 5 days (fraction); higher = more cells survive
[1] = compound: C1=CC2=NC=CN=C2C=C1/C=C/3\C(=O)NC(=O)S3 + C[C@@H](Oc1cc(-c2cnn(C3CCNCC3)c2)cnc1N)c1c(Cl)ccc(F)c1Cl [Crizotinib] (partner 1 µM)
Method in brief: (§1)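 For relative viability, nuclei counts in treated wells were divided by those in vehicle wells. Lung cancer cell lines had been pin-tool dosed in 1536-well plates the day after seeding and cultured for 5 days, then fixed and stained in one step (final 0.05% Triton X-100, 1% formaldehyde, 1 ug/ml Hoechst) and imaged at 4×. Doses were one drug alone or a fixed anchor-drug dose plus five library-drug doses (not always all listed) in √10 steps, and values are duplicate-plate medians.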

[2] = compound: C1=CC2=NC=CN=C2C=C1/C=C/3\C(=O)NC(=O)S3 + CCNC(=O)c1noc(-c2cc(C(C)C)c(O)cc2O)c1-c1ccc(CN2CCOCC2)cc1 [Luminespib] (partner 0.01 µM)
Method in brief: as §1

BGJ398 + OSI-027 = compound: CCN1CCN(c2ccc(Nc3cc(N(C)C(=O)Nc4c(Cl)c(OC)cc(OC)c4Cl)ncn3)cc2)CC1 [BGJ398] + COc1cccc2cc(-c3nc([C@H]4CC[C@H](C(=O)O)CC4)n4ncnc(N)c34)[nH]c12 [OSI-027] (partner 0.5 µM)
Method in brief: as §1

[3] = compound: C1=CC2=NC=CN=C2C=C1/C=C/3\C(=O)NC(=O)S3 + Nc1nc2[nH]cc(CCc3ccc(C(=O)N[C@@H](CCC(=O)O)C(=O)O)cc3)c2c(=O)[nH]1 [Pemetrexed] (partner 0.2 µM)
Method in brief: as §1

Cell Line	relative viability ([1]; first compound 0.02 µM)	relative viability ([1]; first compound 0.06325 µM)	relative viability ([1]; first compound 0.2 µM)	relative viability ([1]; first compound 0.6325 µM)	relative viability ([1]; first compound 2 µM)	relative viability ([2]; first compound 0.02 µM)	relative viability ([2]; first compound 0.06325 µM)	relative viability ([2]; first compound 0.2 µM)	relative viability ([2]; first compound 0.6325 µM)	relative viability ([2]; first compound 2 µM)	relative viability (BGJ398 + OSI-027; first compound 0.01 µM)	relative viability (BGJ398 + OSI-027; first compound 0.03162 µM)	relative viability (BGJ398 + OSI-027; first compound 0.1 µM)	relative viability (BGJ398 + OSI-027; first compound 0.3162 µM)	relative viability (BGJ398 + OSI-027; first compound 1 µM)	relative viability ([3]; first compound 0.02 µM)	relative viability ([3]; first compound 0.06325 µM)	relative viability ([3]; first compound 0.2 µM)	relative viability ([3]; first compound 0.6325 µM)	relative viability ([3]; first compound 2 µM)
NCI-H1666	0.992	1.02	1.05	1.01	1.07	1.04	0.994	1.05	0.965	1.03	0.859	0.834	0.862	0.886	0.764	0.898	0.548	0.838	0.96	0.759
NCI-H1734	0.665		0.808	0.637	0.611	0.245	0.217	0.182	0.194	0.257	0.589	0.645	0.675	0.579	0.702	0.384		0.427	0.436	0.362
NCI-H1755	0.747	0.786	0.86	0.863	0.817	0.433	0.329	0.606	0.244	0.352	0.598	0.852	0.749	0.779	0.698	0.394	0.404	0.465	0.428	0.444
NCI-H1792	0.936	0.872	1.02	0.792	0.668	0.418	0.29	0.453	0.436	0.374	0.684	0.731	0.762	0.581	0.416	0.755		0.756	0.831	0.47
NCI-H1915	0.861	0.934	0.918	0.859	0.894	0.771	0.747	0.815	0.618	0.754	0.59	0.614	0.62	0.582	0.687	0.463	0.456	0.489	0.478	0.483
NCI-H1944	1.07	1.06	1.01	0.993	1.1	0.667	0.515	0.75	0.695	0.656	0.364	0.425	0.436	0.388	0.329	0.537	0.587	0.575	0.564	0.584
NCI-H1975	1.02	1.01	0.937	1.03	0.97	0.289	0.117	0.202	0.149	0.174	0.71	0.923	0.736	0.629	0.646	0.266	0.297	0.299	0.288	0.294
NCI-H1993	0.914	1.03	0.806	0.848	0.668	0.712	0.863	0.854	0.798	0.557	0.525	0.535	0.564	0.507	0.649	0.528	0.665	0.607	0.54	0.449
NCI-H2009	1.06	1.1	1.05	1.04	1.03	0.973	0.995	1.04	1.05	1.05	0.553	0.73	0.653	0.633	0.685	1.05	1.1	1.01	1.01	1.18
NCI-H2023	0.707	0.693	0.608	0.61	0.613	0.701	0.713	0.773	0.757	0.745	0.364	0.462	0.46	0.41	0.395	0.251	0.269	0.24	0.214	0.182
NCI-H2085	0.897	0.917	0.766	0.829	0.937	0.489	0.44	0.435	0.452	0.428	0.706	0.673	0.84	0.663	0.807	0.907	0.917	0.92	0.892	0.807
NCI-H2087	0.849	0.954	0.707	0.804	0.8	0.169	0.208	0.227	0.173	0.203	0.359	0.639	0.587	0.63	0.546	0.612	0.734	0.632	0.623	0.615
NCI-H2126	0.995	1.11	0.97	0.974	0.957	0.86	1.12	0.866	0.83	0.601	0.864	0.705	0.664	0.721	0.687	0.65	0.772	0.684	0.713	0.463
NCI-H2170	1.14	1.22	1.2	1.16	1.34	0.757	0.942	0.79	0.525	0.717	0.742	0.606	0.706	0.619	0.707	0.29	0.268	0.287	0.278	0.263
NCI-H2228	0.407	0.433	0.587	0.294	0.428	0.157	0.132	0.152	0.156	0.137	0.525	0.535	0.67	0.501	0.717	0.358	0.34	0.332	0.293	0.321
NCI-H2347	0.679	0.645	0.672	0.717	0.916	0.38	0.288	0.548	0.354	0.431	0.228	0.557	0.447	0.413	0.434	0.417	0.447	0.427	0.444	0.408
